For data set [1] the following is noted: from the literature; cited from earlier work.
For the next data set, the system named is E. aerogenes 0705A0867. Put plainly: Minimal inhibitory concentration on Muller-Hinton agar. The format is cell-based. Particulars: for Minimal Inhibitory Concentration: E. aerogenes 0705A0867; for MIC: Klebsiella aerogenes. The protocol:
(§1) The essential oils were also tested individually for their minimal inhibitory concentration.
(§2) The solution was first prepared at 40% in DMSO before being placed on the Muller-Hinton agar in the following manner in Table VIII:
(§3) Twenty-two different microorganisms were tested and their minimal inhibitory concentration was tested.

In the next data set the test system is K. oxyloca 0705C0187. The data set is described as above. The format is cell-based. The protocol: as §1, §2, §3
The subject of the next data set is A. baumanni 12. Described as above. The format is cell-based. The note with it: read-out: Minimal Inhibitory Concentration. The protocol:
as §1, §2, §3

A further data set deals with S. aureus ATC25923. Described as above. The format is cell-based. The note with it: for Minimal Inhibitory Concentration: S. aureus ATC25923; for MIC: Staphylococcus aureus. The protocol: as §1, §2, §3
The test system of another data set is S. aureus 0702E0196. Described as above. The note with it: for Minimal Inhibitory Concentration: S. aureus 0702E0196; for MIC: Staphylococcus aureus. The format is cell-based. The protocol:
as §1, §2, §3

A further data set relates to P. aeroginosa 0704C0134. Described as above. The format is cell-based. The protocol: as §1, §2, §3
The test system of another data set is P. aeroginosa 0703C0259. The data set is described as above. The format is cell-based. The protocol:
as §1, §2, §3

A further data set relates to S. aureus 0706C0025. Described as above. The format is cell-based. Particulars: for Minimal Inhibitory Concentration: S. aureus 0706C0025; for MIC: Staphylococcus aureus. The protocol: as §1, §2, §3
Another data set concerns A. baumanni CIP7034. Described as above. The format is cell-based. The protocol: as §1, §2, §3
For another data set, the system named is A. baumanni AYE. The description is as above. The format is cell-based. The protocol: as §1, §2, §3
A further data set has as its system A. baumanni SAN008. The description is as above. The format is cell-based. The protocol:
as §1, §2, §3

In the next data set the test system is S. aureus 0701A0095. The description is as above. The format is cell-based. Particulars: for MIC: Staphylococcus aureus. The protocol: as §1, §2, §3
In the next data set the test system is S. aureus 0703H0036. Described as above. The format is cell-based. The note with it: for Minimal Inhibitory Concentration: S. aureus 0703H0036; for MIC: Staphylococcus aureus. The protocol: as §1, §2, §3
In another data set the test system is E. coli 0705A0434. The data set is described as above. Particulars: for Minimal Inhibitory Concentration: E. coli 0705A0434; for MIC: Escherichia coli. The format is cell-based. The protocol:
as §1, §2, §3

The test system of a further data set is Salmonell enteritidis 4. The description is as above. The format is cell-based. The protocol:
as §1, §2, §3

The subject of the next data set is E. coli ATCC25922. Described as above. The format is cell-based. The protocol: as §1, §2, §3
The test system of another data set is A. baumanni RCH. The data set is described as above. The format is cell-based. Particulars: read-out: Minimal Inhibitory Concentration. The protocol:
as §1, §2, §3

The next data set deals with A. baumanni CIP107292. The description is as above. The format is cell-based. The protocol:
as §1, §2, §3

A further data set concerns A. baumanni CIP5377. The data set is described as above. The format is cell-based. Particulars: read-out: Minimal Inhibitory Concentration. The protocol:
as §1, §2, §3

In another data set the test system is P. aeroginosa ATCC27853. The data set is described as above. Particulars: read-out: Minimal Inhibitory Concentration. The format is cell-based. The protocol:
as §1, §2, §3

For the next data set, the system named is E. cloacae 0705A1743. The description is as above. The format is cell-based. The protocol:
as §1, §2, §3

Values after ≈ are worked out from the molar mass of the structure shown. Where two headings read alike, the source gives them in different places.

Consider eight molecules from US9492398B2, “Nanocapsulation of essential oils for preventing or curing infectious diseases alone or with an antibiotic” (Eydo Pharma, priority 2011, dated 2016).

For `CO[C@@H]1[C@@H](O[C@@H]2O[C@H](C)[C@@H](O[C@H]3C[C@@](C)(O)[C@@H](OC(=O)CC(C)C)[C@H](C)O3)[C@H](N(C)C)[C@H]2O)[C@@H](CC=O)C[C@@H](C)[C@@H](O)/C=C/C=C/C[C@@H](C)OC(=O)C[C@H]1OC(C)=O` [Josamycin], the “LD50 in mice by intraperitoneal injection” value (from here on “LD50 in mice”) in [1] is listed as 780 mg/kg.

As for `CN(C)[C@@H]1C(O)=C(C(N)=O)C(=O)[C@@]2(O)C(O)=C3C(=O)c4c(O)ccc(Cl)c4[C@@H](O)[C@H]3C[C@@H]12` [Demeclocyclin], the “LD50 in mice” value in data set [1] is 120 mg/kg.

Consider `[H]/N=C(/N)N[C@H]1[C@H](O)[C@@H](O)[C@H](O[C@@H]2O[C@@H](C)[C@](O)(C=O)[C@H]2O[C@@H]2O[C@@H](CO)[C@H](O)[C@@H](O)[C@@H]2NC)[C@@H](N/C(N)=N\[H])[C@@H]1O` [Streptomycin], for which, in data set [1], the “LD50 in mice” value was 525 mg/kg.

In the case of `CC[C@H]1OC(=O)[C@H](C)[C@@H](O[C@H]2C[C@@](C)(OC)[C@@H](O)[C@H](C)O2)[C@H](C)[C@@H](O[C@@H]2O[C@H](C)C[C@H](N(C)C)[C@H]2O)[C@](C)(O)C[C@@H](C)C(=O)[C@H](C)[C@@H](O)[C@]1(C)O` [Erythromycin], the “LD50 in mice” value in [1] was 280 mg/kg.

Gentamicin: in data set [1], the “LD50 in mice” value is listed as 245 mg/kg.

Take `O=C/C=C/c1ccccc1` [trans cinnamaldehyde]: the “Minimal Inhibitory Concentration” value came out at 2 mg/mL in the data set on E. aerogenes 0705A0867; 2 mg/mL with K. oxyloca 0705C0187 (K. oxyloca 0705C0187); 1.5 mg/mL in the data set with S. aureus ATC25923; 1.5 mg/mL with S. aureus 0702E0196; 2 mg/mL in the data set on P. aeroginosa 0704C0134 (P. aeroginosa 0704C0134); 2 mg/mL in the data set with P. aeroginosa 0703C0259. The “Minimal Inhibitory Concentration” value in the data set with S. aureus 0706C0025 is 0.5 mg/mL; with A. baumanni AYE (A. baumanni AYE), 2 mg/mL; in the data set with A. baumanni SAN008 (A. baumanni SAN008) it was 2 mg/mL; in the data set on S. aureus 0701A0095 (S. aureus 0701A0095), 1.5 mg/mL; in the data set on S. aureus 0703H0036, 1.5 mg/mL; in the data set on E. coli 0705A0434, 2 mg/mL. The “Minimal Inhibitory Concentration” value in the data set on Salmonell enteritidis 4 (Salmonell enteritidis 4) came to 2 mg/mL. The MIC with E. aerogenes 0705A0867 (0705A0867, E. aerogenes 0705A0867, read-out: Minimal Inhibitory Concentration) came to 1000 µg/mL (≈ 7.57 mM); with K. oxyloca 0705C0187 (K. oxyloca 0705C0187, read-out: Minimal Inhibitory Concentration) it was 1000 µg/mL (≈ 7.57 mM); in the data set on A. baumanni 12 (A. baumanni 12), 1000 µg/mL (≈ 7.57 mM); with S. aureus ATC25923 (ATC25923, S. aureus ATC25923, read-out: Minimal Inhibitory Concentration), 750 µg/mL (≈ 5.67 mM); in the data set with S. aureus 0702E0196 (0702E0196, S. aureus 0702E0196, read-out: Minimal Inhibitory Concentration), 1000 µg/mL (≈ 7.57 mM); with P. aeroginosa 0704C0134 (P. aeroginosa 0704C0134, read-out: Minimal Inhibitory Concentration), 1000 µg/mL (≈ 7.57 mM). The MIC against P. aeroginosa 0703C0259 amounted to 1500 µg/mL (≈ 11.3 mM); in the data set with S. aureus 0706C0025 (0706C0025, S. aureus 0706C0025, read-out: Minimal Inhibitory Concentration) it was 750 µg/mL (≈ 5.67 mM); with A. baumanni CIP7034 (A. baumanni CIP7034, read-out: Minimal Inhibitory Concentration) it was 1000 µg/mL (≈ 7.57 mM); with A. baumanni AYE (A. baumanni AYE, read-out: Minimal Inhibitory Concentration) it was 1000 µg/mL (≈ 7.57 mM); in the data set with A. baumanni SAN008 (A. baumanni SAN008, read-out: Minimal Inhibitory Concentration) it was 1000 µg/mL (≈ 7.57 mM); with S. aureus 0701A0095 (0701A0095, S. aureus 0701A0095, read-out: Minimal Inhibitory Concentration), 750 µg/mL (≈ 5.67 mM). Moreover, the MIC came out at 750 µg/mL (≈ 5.67 mM) in the data set on S. aureus 0703H0036 (0703H0036, S. aureus 0703H0036, read-out: Minimal Inhibitory Concentration); 1000 µg/mL (≈ 7.57 mM) in the data set on E. coli 0705A0434 (0705A0434, E. coli 0705A0434, read-out: Minimal Inhibitory Concentration); 1000 µg/mL (≈ 7.57 mM) with Salmonell enteritidis 4 (Salmonell enteritidis 4, read-out: Minimal Inhibitory Concentration).

On to `CCN1CCN(C(=O)N[C@@H](C(=O)N[C@@H]2C(=O)N3[C@@H]2SC(C)(C)[C@@H]3C(=O)O)c2ccccc2)C(=O)C1=O` [Piperacillin], for which the “LD50 in mice” value in [1] was 9970 mg/kg.

For `Cc1ccc(C(C)C)cc1O` [carvacrol], the “Minimal Inhibitory Concentration” value stood at 2 mg/mL in the data set with E. aerogenes 0705A0867; 2 mg/mL in the data set with K. oxyloca 0705C0187 (K. oxyloca 0705C0187); 2 mg/mL in the data set with E. coli ATCC25922 (E. coli ATCC25922); 0.75 mg/mL with S. aureus ATC25923; 1 mg/mL in the data set with S. aureus 0702E0196; 5 mg/mL in the data set with P. aeroginosa 0704C0134 (P. aeroginosa 0704C0134). Besides, the “Minimal Inhibitory Concentration” value in the data set on S. aureus 0706C0025 amounted to 2 mg/mL; with A. baumanni CIP107292 (A. baumanni CIP107292), 1.5 mg/mL; with A. baumanni CIP7034 (A. baumanni CIP7034) it was 1.5 mg/mL; in the data set on A. baumanni AYE (A. baumanni AYE), 1.5 mg/mL; in the data set with A. baumanni SAN008 (A. baumanni SAN008) it was 1.5 mg/mL; in the data set with S. aureus 0703H0036 it was 2 mg/mL. In addition, the “Minimal Inhibitory Concentration” value is 2 mg/mL in the data set on E. coli 0705A0434, 2 mg/mL in the data set with E. cloacae 0705A1743 (E. cloacae 0705A1743) and 2.5 mg/mL with Salmonell enteritidis 4 (Salmonell enteritidis 4). The MIC in the data set with E. aerogenes 0705A0867 (0705A0867, read-out: Minimal Inhibitory Concentration, E. aerogenes 0705A0867) was 1500 µg/mL (≈ 9.99 mM); with K. oxyloca 0705C0187 (read-out: Minimal Inhibitory Concentration, K. oxyloca 0705C0187), 1500 µg/mL (≈ 9.99 mM); in the data set with E. coli ATCC25922 (Escherichia coli, ATCC25922, read-out: Minimal Inhibitory Concentration, E. coli ATCC25922), 1500 µg/mL (≈ 9.99 mM); in the data set on A. baumanni 12 it was 1500 µg/mL (≈ 9.99 mM); with S. aureus ATC25923 (ATC25923, read-out: Minimal Inhibitory Concentration, S. aureus ATC25923) it was 1500 µg/mL (≈ 9.99 mM); in the data set on S. aureus 0702E0196 (0702E0196, read-out: Minimal Inhibitory Concentration, S. aureus 0702E0196), 1500 µg/mL (≈ 9.99 mM). For the same molecule, the MIC with P. aeroginosa 0704C0134 (read-out: Minimal Inhibitory Concentration, P. aeroginosa 0704C0134) was found to be 2500 µg/mL (≈ 16.6 mM); in the data set on S. aureus 0706C0025 (0706C0025, read-out: Minimal Inhibitory Concentration, S. aureus 0706C0025), 1500 µg/mL (≈ 9.99 mM); with A. baumanni RCH, 1000 µg/mL (≈ 6.66 mM); in the data set with A. baumanni CIP107292 (read-out: Minimal Inhibitory Concentration, A. baumanni CIP107292), 1000 µg/mL (≈ 6.66 mM); with A. baumanni CIP7034 (read-out: Minimal Inhibitory Concentration, A. baumanni CIP7034) it was 1000 µg/mL (≈ 6.66 mM); in the data set on A. baumanni CIP5377, 1000 µg/mL (≈ 6.66 mM). The MIC worked out at 1000 µg/mL (≈ 6.66 mM) with A. baumanni AYE (read-out: Minimal Inhibitory Concentration, A. baumanni AYE); 1000 µg/mL (≈ 6.66 mM) in the data set on A. baumanni SAN008 (read-out: Minimal Inhibitory Concentration, A. baumanni SAN008); 7500 µg/mL (≈ 49.9 mM) in the data set with P. aeroginosa ATCC27853; 1500 µg/mL (≈ 9.99 mM) in the data set on S. aureus 0701A0095 (0701A0095, read-out: Minimal Inhibitory Concentration); 1500 µg/mL (≈ 9.99 mM) with S. aureus 0703H0036 (0703H0036, read-out: Minimal Inhibitory Concentration, S. aureus 0703H0036); 1500 µg/mL (≈ 9.99 mM) in the data set with E. coli 0705A0434 (0705A0434, read-out: Minimal Inhibitory Concentration, E. coli 0705A0434). In addition, the MIC in the data set with E. cloacae 0705A1743 (Enterobacter cloacae, 0705A1743, read-out: Minimal Inhibitory Concentration, E. cloacae 0705A1743) came out at 1500 µg/mL (≈ 9.99 mM); with Salmonell enteritidis 4 (read-out: Minimal Inhibitory Concentration, Salmonell enteritidis 4), 2000 µg/mL (≈ 13.3 mM).
